# “Also recorded” adds a separate entry of the source.
# Key:
# [1] = hydroxyapatite (HAP) binding affinity, relative retention times normalized to RIS; settings: FIG. 7
# Protocol: FIG. 7 is a bar graph showing hydroxyapatite (HAP) binding affinity of Zoledronate (ZOL), ROX-RIS, 5-FAM-ZOL, and AF647-ZOL. Relative retention times were normalized to RIS.
# Hydroxyapatite assays indicate that the FL-BPs generally retain substantial affinity for bone mineral that reflect the affinity of the BP component and to a lesser extent, the affinity of the conjugated fluorophore. Hydroxyapatite (Macro-Prep® Ceramic hydroxyapatite Type II […]) was obtained from Bio-Rad Laboratories, Inc. Hercules, Calif. Accurately weighed hydroxyapatite powder (1.4-1.6 mg) was suspended in a 4 mL clear vial containing the appropriate volume of assay buffer (0.05% (wt/vol) Tween20, 10 μM EDTA and 100 mM HEPES pH=7.4) for 3 hours. Hydroxyapatite was then incubated with increasing amounts of FAM-BP and ROX-BP (0, 25, 50, 100, 200, and 300 μM). Samples were gently shaken for 3 hours at 37° C. in appropriate volume of assay buffer (0.05% (wt/vol) Tween20, 10 μM EDTA and 100 mM HEPES pH=7.4). Subsequent to the equilibrium period, the vials were centrifuged at 10,000 rpm for 5 minutes to separate the solids and the supernatant. 0.3 mL of the supernatant was collected and the equilibrium solution concentration is measured by using Shimadzu UV-VIS spectrometer. For the calibration series, FL-BP probe standards were prepared by serial dilution from the stock solution with the same isotherm buffer to give the range from 0 to 400 μM. Calibration curves were constructed using standard solutions of the target FL-BPs. Fluorescent emission can also be used to calculate the binding parameters. Nonspecific binding was measured with a similar procedure in the absence of hydroxyapatite as control. Binding parameters (Kd and Bmax, represent the equilibrium dissociate constant and maximum number of binding sites, respectively) were calculated using the PRISM program (Graphpad, USA). The binding parameters of each compound was measured in 5 independent experiments. […]
# mouse maxilla = experiment: preliminary study: fluorescent imaging of mouse maxilla after 5-FAM-ZOL IV or ROX-RIS intraoral injection; format: in vivo; settings: single IV 200 μl of 350 μM; 3 weeks after
# Protocol: In a preliminary study female C57B16/J (B6) mice (8 weeks old) received either a single IV injection via tail vein of 200 μl of 350 μM 5-FAM-ZOL (5-FAM-ZOL, #BV111001, BioVinc LLC, Culver City, Calif.) or a single intraoral injection of 25 μl of 50 μM ROX-RIS (5(6)-ROX-RIS, #BV150101, BioVinc LLC, CA) to gingival/palatal tissue at maxillary left first molar (white arrow in FIG. 11). […], mice were euthanized 3 weeks after the IV injection of 5-FAM-ZOL or 2 days after the intraoral injection of ROX-RIS. Skulls (containing maxilla) were harvested and standardized fluorescent biophotonics image was obtained using an excitation wavelength of 460 nm and the 515 nm filter (LAS3000, FUJIFILM Corp).
# mouse cranial bone = experiment: cranial bone displacement: AF647-ZOL pre-adsorbed via IV, FAM-ZOL sub-periosteal injection; format: in vivo; settings: for signal of pre-adsorbed AF647-ZOL at the FAM-ZOL injection site: AF647-ZOL 100 μl of 50 μM IV 6 days before, increasing dose of FAM-ZOL; for FAM signal on the cranial bone at the injection site: sub-periosteal 10 μl of 0, 1, 10 or 50 μM
# Protocol: FIG. 12A to FIG. 12C show the displacement and replacement of AF647-ZOL and 5-FAM-ZOL. FIG. 12A are fluorescent images of cranial bone. AF647-ZOL (50 μM) was pre-adsorbed on cranial bone via IV injection. 5-FAM-ZOL at the indicated doses was directly injected to the sub-periosteal space. […] The first bars of each set are for AF647-ZOL and the second bars of each set are for 5-FAM-ZOL. *, P<0.05 vs Veh by Dunnett's test.
# Mice were pre-treated by 100 μl of 50 μM AF647-ZOL retro-orbital IV injection. Six days later, mice received sub-periosteal injection to cranial bone with 10 μl of 0 μM, 1 μM, 10 μM, or 50 μM FAM-ZOL. The cranial bone was harvested and soft tissues were removed. The fluorescent signals of AF647 and FAM were measured by standardized fluorescent biophotonics. The cranial bones were then prepared for cryosection. Cross-sections were made by the tape method and evaluated by confocal laser scanning microscopy.
# femur trabecular bone = experiment: micro CT evaluation of pharmacological function of 5-FAM-ZOL in vitamin D deficient rats; format: in vivo; settings: vitamin D deficient (VitD (−)) rats; FIG. 13
# Protocol: The pharmacological function of 5-FAM-ZOL was examined in vitamin D deficient (VitD (−)) rats (n=3 in each group). […] Bars are 1.0 mm. *: p<0.05 by Student's t-test.
# This study determines the anti-resorptive function of FL-BP in vivo, as compared to ZOL. Female B6 mice were injected with 50 μM ZOL (n=6), 50 μM FL-BP (n=6) or 0.9% NaCl vehicle solution (control: n=6) via tail vein. Three weeks later, mice were euthanized and femur and L4/L5 were harvested. After fixed in 10% buffered formalin, bone samples were subjected to micro CT analysis. The anti-resorptive function were quantitatively established by the trabecular bone three-dimensional morphometry (e.g., BV/TV, Tb.N, Tb.Th, TbSp). FL-BPs with minimal or no pharmacological BP function are used.
smiles,measurement,setting,value
O=C(NCC(O)C[n+]1ccn(CC(O)(P(=O)(O)O)P(=O)(O)O)c1)c1ccc(-c2c3ccc(=O)cc-3oc3cc(O)ccc23)c(C(=O)O)c1 (stereo not drawn) [5-FAM-ZOL],influence of the fluorophore on hydroxyapatite affinity,[1],small reduction
same,fluorescent signal in maxilla and zygomatic arch,mouse maxilla,Strong and relatively uniform green fluorescent signal
same,signal of pre-adsorbed AF647-ZOL at the FAM-ZOL injection site,mouse cranial bone,decreased
same,signal of pre-adsorbed AF647-ZOL at the FAM-ZOL injection site,mouse cranial bone; listed as FAM-ZOL,gradual decrease
same,AF647-ZOL signal on the external versus internal bone surface after FAM-ZOL injection,mouse cranial bone; cranial bone cryo-cross sections,disproportionately reduced
same,FAM signal on the cranial bone at the injection site,mouse cranial bone,increased with increasing injection dose
same,FAM signal on the cranial bone at the injection site,mouse cranial bone; listed as FAM-ZOL,dose dependent increase
same,location of FAM-ZOL signal in cranial bone,"mouse cranial bone; sub-periosteal injection, cryo-cross sections",primarily on the external bone surface
same,pharmacological (anti-resorptive) function,femur trabecular bone,exhibited pharmacological function; also recorded: effectively blocked catabolic bone remodeling
